Test results reported in patent publication US20040053859A1, “Preventive or therapeutic agent for cancer containing cyanidin compound as active ingredient” (priority 2000, published 2004).

Experiments:
large intestine cancer = experiment: carcinostatic effect against PhIP-promoted, DMH-initiated large intestine cancer in rats (macroscopic pathologic examination); assay type: in vivo, F344/DuCrj male rats; conditions: DMH 20 mg/kg s.c. once a week for 4 weeks, then feed for 32 weeks, group 2 PhIP 200 ppm only, group 3 PhIP 200 ppm + PCC 5%
Excerpt: Using DMH (1,2-dimethylhydradinedihydrochloride, manufactured by Tokyo Kasei Kogyo Co., Ltd., Lot. FIH01-UR) as an initiator of large intestine cancer, the carcinostatic effect of a purple corn pigment (manufactured. by San-Ei gen F.F.I., Inc. Lot. 990519, containing 10.8% of the compound of the formula (III) and 6.5% of the compound of the formula (IV), hereinafter referred to as PCC) was examined against the carcinogenesis promoting effect of PhIP (2-amino-1-methyl-6-phenylimidazo [4,5-b] pyridine (Toronto Research Chemical Inc., Lot. 5-YCX-55-2).
(§1) F344/DuCrj male rats (Charles River Japan Inc.) were used as test animals. The rats were subjected to a subcutaneous administration of DMH of 20 mg/kg once a week, for 4 weeks. They were divided into a group 1 fed with a basic feed (labo MR stock, manufactured by Nihon Nosan Kogyo KK), a group 2 fed with PhIP (200 ppm) only, and a group 3 fed with a mixture of PhIP (200 ppm) and PCC (5%). The rats (20 per group) were allowed to take the feed freely for 32 weeks.
The rats alive at the end of the experiment were fasted and then bled for euthanasia under deep anesthesia. They were dissected together with the dead rat of the group 2 to macroscopically examine tumorigenesis in various organs in the thoracic cavity and the abdominal cavity.
In every rat, tumorigenesis was not observed in other organs than the large intestine (cecum, colon, rectum). The tumor generated in the large intestine was recognized as cancer by the macroscopic pathologic examination.

[1] = survival, clinical manifestation, weight and water intake of rats during feeding of test substances; assay type: in vivo, F344/DuCrj male rats
Protocol: as §1
With an electronic balance (LC2200, manufactured by Sartorius), the weight of each rat was measured once a week until 14th week after initiation of the experiment, and thereafter measured once every two weeks. The feed intake amount of each rat was also measured once a week until 14th week, and thereafter measured once every other week in the same manner as the weight measurement, except that the feed intake amount for two days was measured.
With an electronic balance (LC2200, manufactured by Sartorius), an intake amount of water for two days was measured once a week until 14th week, and thereafter measured once every other week.

## Cn1c(N)nc2ncc(-c3ccccc3)cc21 [PhIP, 2-amino-1-methyl-6-phenylimidazo[4,5-b]pyridine]
Large intestine cancer; 20 rats per group
  Number of rats having tumor: 17
  Numbers of tumors: 48
Large intestine cancer
  Number of tumors/number of rats having tumor: 2.82
[1]; 5th and 6th weeks, group 2 PhIP 200 ppm, group 3 PhIP 200 ppm + PCC 5%, group 1 about 20
  water intake amount: about 19 g/animal/day
[1]; 32 weeks feeding after DMH, 20 rats per group
  survival until the end of the experiment: one in the group 2 died during the experiment
[1]; group 2 PhIP 200 ppm, group 3 PhIP 200 ppm + PCC 5%, group 1 basic feed about 360 g
  weight of the rats reached during administration of test substances (from about 230 g): ~315 g
